# From patent US10906894B2, “Compounds containing benzo[d][1,3]oxathiole, benzo[d][1,3]oxathiole 3-oxide or benzo[d][1,3]oxathiole 3,3-dioxide and methods/uses thereof as agonists of g protein-coupled receptor 119” (PRAMANA PHARMACEUTICALS INC., priority 2016, dated 2021)
# Biological target: T1, GPR119 (Homo sapiens, UniProt Q8TDV5)
# T1 sequence (Q8TDV5 1-335): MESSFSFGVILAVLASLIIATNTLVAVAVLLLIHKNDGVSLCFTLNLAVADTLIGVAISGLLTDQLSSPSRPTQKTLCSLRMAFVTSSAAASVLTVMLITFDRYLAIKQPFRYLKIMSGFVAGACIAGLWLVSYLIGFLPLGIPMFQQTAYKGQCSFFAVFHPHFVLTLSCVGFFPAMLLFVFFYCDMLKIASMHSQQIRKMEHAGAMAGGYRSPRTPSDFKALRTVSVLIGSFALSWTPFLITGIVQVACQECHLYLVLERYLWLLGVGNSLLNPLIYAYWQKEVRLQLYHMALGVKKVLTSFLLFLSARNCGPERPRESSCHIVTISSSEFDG
# Test: LANCE Ultra cAMP assay: stimulation of GPR119-mediated cAMP production in CHO cells stably expressing human GPR119 receptor
# Assay type: cell-based
# Details: for Emax: CHO, read-out: % cAMP Max.
# Procedure: The potency of GPR119 receptor agonists was assessed by measuring the stimulation of GPR119-mediated cAMP production with LANCE Ultra cAMP assay (Perkin Elmer, TRF0264) in CHO cells stably expressing human GPR119 receptor (Chantest, cat. #A633). CHO-GPR119 cells were cultured in DMEM/F12 medium supplemented with 10% FBS and 1% NEAA at 37° C., 5% CO2, aliquoted and frozen in liquid nitrogen.
# (§1) For assay, cells were thawed in a water bath at 37° C., washed in Hank's Balanced Salt Solution (HBSS) and resuspended in Stimulation Buffer 1 (SB1) for 30 min: 5 mM HEPES, pH 7.2-7.4, 0.1% BSA in HBSS. […] The ULight-anti-cAMP antibody (Perkin Elmer, TRF0264) was added to the cell suspension making Mix [Cell suspension/4× ULight-anti-cAMP antibodies]. […] The assay plate was centrifuged 200 g, 5 sec.
# Serial dilution (100×) of tested compounds were prepared in DMSO in the range of from 30 nM to 1 mM with half-log step in 384-well plates (Greiner, 781280) using Biomek 2000. 10 test concentrations in two repeats were prepared for each CRC. […] The assay plate was incubated 30 minutes at room temperature on a shaker, 250 rpm to allow GPR119 receptor stimulation. The cAMP level was determined according to the standard kit supplier protocol (PerkinElmer, cat. #TRF0264).
# (§2) The stock solution of the Eu-cAMP tracer (Perkin Elmer, TRF0264) was diluted 1:100 in cAMP Detection Buffer (Perkin Elmer, TRF0264), making 2× working concentration and added to the assay plate, 10 μL per well. Assay plate was centrifuged 180 g, 1 sec. Then the assay plate was incubated for 60′ at room temperature on shaker, 250 rpm to allow cAMP detection. The TR-FRET signal was measured at Ex-340 nm/Em-615 and Ex-340 nm/Em-665 nm on the reader Tecan M1000. 0% of cAMP stimulation corresponds to the cells with DMSO only, 100% of cAMP stimulation corresponds to the cells with 10 uM Forskolin. The EC50 value defined as the concentration of the drug that gives half-maximal response, were calculated using GraphPad Prizm 5.0 software with forskolin was used as references at each test. Entries 1-17 in Table A-2 show the biological activity of certain representative compounds using the protocol as described above.
# as §1, with “cell suspension,” for “cell suspension”
# as §2, with “1-14” for “1-17”, “B-2” for “A-2”
# [1] = Table B-2 entries 1-14, protocol as described (800 000 cells/mL, 5 uL/well), CHO-GPR119 cells
# [2] = Table B-2 entries 15-39, modified protocol, 500 cells/well
# [3] = reference ligands in modified protocol, 500 cells/well
EC50 [1] [nM],Emax [2] [%],EC50 [2] [nM],SMILES,also measured
4.8,–,–,CCc1cnc(N2CCC(COc3ccc(-c4ccc5c(c4)OC[S+]5[O-])cc3F)CC2)nc1 (stereo not drawn) [Example B-19],–
46.2,–,–,"CC(C)CC(=O)N1CCC(COc2ccc(-c3ccc4c(c3)OC[S+]4[O-])cc2F)CC1 (stereo not drawn) [Example B-23, 1-(4-((2-Fluoro-4-(3-oxido-2H-benzo[d][1,3]oxathiol-6-yl)phenoxy)methyl)-piperidin-1-yl)-3-methylbutane-1-one]",–
2.3,–,–,"COc1cnc(N2CCC(COc3ccc(-c4ccc5c(c4)OC[S+]5[O-])cc3F)CC2)nc1 (stereo not drawn) [Example B-24, 6-(3-Fluoro-4-((1-(5-methoxypyrimidin-2-yl)piperidin-4-yl)methoxy)phenyl)-2H-benzo[d][1,3]oxathiole 3-oxide]",–
31.8,–,–,CCc1ccnc(N2CCC(COc3ccc(-c4ccc5c(c4)OC[S+]5[O-])cc3F)CC2)n1 (stereo not drawn) [Example B-25],–
> 500,–,–,CCc1ccnc(N2CCC(COc3ccc(-c4ccc5c(c4)OCS5)cc3F)CC2)n1 [Example B-26],–
4.7,–,–,"CCOc1cnc(N2CCC(COc3ccc(-c4ccc5c(c4)OC[S+]5[O-])cc3F)CC2)nc1 (stereo not drawn) [Example B-27, 6-(4-((1-(5-Ethoxypyrimidin-2-yl)piperidin-4-yl)methoxy)-3-fluorophenyl)-2H-benzo[d][1,3]oxathiole 3-oxide]",–
3,–,–,"CC(C)c1cnc(N2CCC(COc3ccc(-c4ccc5c(c4)OC[S+]5[O-])cc3F)CC2)nc1 (stereo not drawn) [Example B-28, 6-(3-Fluoro-4-((1-(5-isopropylpyrimidin-2-yl)piperidin-4-yl)methoxy)phenyl)-2H-benzo[d][1,3]oxathiole 3-oxide]",–
52,–,–,"[O-][S+]1COc2cc(-c3ccc(OCC4CCN(c5ccc(C(F)(F)F)cn5)CC4)c(F)c3)ccc21 (stereo not drawn) [Example B-29, 6-(3-Fluoro-4-((1-(5-(trifluoromethyl)pyridin-2-yl)piperidin-4-yl)methoxy)phenyl)-2H-benzo[d][1,3]oxathiole 3-oxide]",–
1.2,–,–,"[O-][S@+]1COc2cc(-c3ccc(OCC4CCN(c5ncc(Cl)cn5)CC4)c(F)c3)ccc21 [Example B-32, (S)-6-(4-((1-(5-chloropyrimidin-2-yl)piperidin-4-yl)methoxy)-3-fluorophenyl)-2H-benzo[d][1,3]oxathiole 3-oxide]",–
–,61,27.3,"CCc1ccnc(N2CCC(COc3ccc(-c4ccc5c(c4)OC[S+]5[O-])cc3F)CC2)n1 (stereo not drawn) [Example B-35, 6-(4-((1-(4-Ethylpyrimidin-2-yl)piperidin-4-yl)methoxy)-3-fluorophenyl)-2H-benzo[d][1,3]oxathiole 3-oxide]",–
–,79,365,"CCc1cnc(N2CCC(COc3ccc(-c4ccc5c(c4)OCS5)cc3F)CC2)nc1 [Example B-37, 2-(4-((4-(Benzo[d][1,3]oxathiol-6-yl)-2-fluorophenoxy)methyl)piperidin-1-yl)-5-ethylpyrimidine]",–
–,78,10.5,"CC(C)c1cnc(N2CCC(COc3ccc(-c4ccc5c(c4)OCS5)cc3F)CC2)nc1 [Example B-38, 2-(4-((4-(Benzo[d][1,3]oxathiol-6-yl)-2-fluorophenoxy)methyl)piperidin-1-yl)-5-isopropylpyrimidine]",–
–,64,2900,"COc1cnc(N2CCC(COc3ccc(-c4ccc5c(c4)OCS5)cc3F)CC2)nc1 [Example B-39, 2-(4-((4-(Benzo[d][1,3]oxathiol-6-yl)-2-fluorophenoxy)methyl)piperidin-1-yl)-5-methoxpyrimidine]",–
–,50,2000,"CC(C)CC(=O)N1CCC(COc2ccc(-c3ccc4c(c3)OCS4)cc2F)CC1 [Example B-40, 1-(4-((4-(Benzo[d][1,3]oxathiol-6-yl)-2-fluorophenoxy)methyl)piperidin-1-yl)-3-methylbutan-1-one]",–
–,68,2.3,"CCc1cnc(N2CCC(COc3ccc(-c4ccc5c(c4)OC[S@@+]5[O-])cc3F)CC2)nc1 [Example B-45, (S)-6-(4-((1-(5-Ethylpyrimidin-2-yl)piperidin-4-yl)methoxy)-3-fluorophenyl)-2H-benzo[d][1,3]oxathiole 3-oxide]",–
–,70,40.6,"COc1cnc(N2CCC(COc3ccc(-c4ccc5c(c4)OC[S@+]5[O-])cc3F)CC2)nc1 [Example B-51, (R)-6-(3-Fluoro-4-((1-(5-methoxypyrimidin-2-yl)piperidin-4-yl)methoxy)phenyl)-2H-benzo[d][1,3]oxathiole 3-oxide]",–
–,73,19.5,CCc1cnc(N2CCC(COc3ccc(-c4ccc5c(c4)OC[S@+]5[O-])cc3F)CC2)nc1 [Example B-52],–
–,74,41,"CC(C)c1cnc(N2CCC(COc3ccc(-c4ccc5c(c4)OC[S@+]5[O-])cc3F)CC2)nc1 [Example B-53, (R)-6-(3-fluoro-4-((1-(5-isopropylpyrimidin-2-yl)piperidin-4-yl)methoxy)phenyl)-2H-benzo[d][1,3]oxathiole 3-oxide]",–
–,66,43.5,"[O-][S@+]1COc2cc(-c3cnc(OCC4CCN(c5ncc(Cl)cn5)CC4)nc3)ccc21 [Example B-62, (S)-6-(2-((1-(5-Chloropyrimidin-2-yl)piperidin-4-yl)methoxy)pyrimidin-5-yl)-2H-benzo[d][1,3]oxathiole 3-oxide]",–
–,74,54,"CCc1cnc(N2CC[C@@H](COc3ccc(-c4ccc5c(c4)OC[S+]5[O-])cc3F)C2)nc1 (stereo partly drawn) [Example B-67, 6-(4-(((R)-1-(5-Ethylpyrimidin-2-yl)pyrrolidin-3-yl)methoxy)-3-fluorophenyl)-2H-benzo[d][1,3]oxathiole 3-oxide]",–
–,–,> 10000,CCc1cnc(N2CC[C@@H](COc3ccc(-c4ccc5c(c4)OCS5)cc3F)C2)nc1 [Example B-69],–
–,80,20.5,CCc1cnc(N2CC[C@H](COc3ccc(-c4ccc5c(c4)OC[S@+]5[O-])cc3F)C2)nc1 [Example B-76],–
–,81,32.5,CCc1cnc(N2CC[C@@H](COc3ccc(-c4ccc5c(c4)OC[S@@+]5[O-])cc3F)C2)nc1 [Example B-77],–
–,72,115,CCc1cnc(N2CC[C@@H](COc3ccc(-c4ccc5c(c4)OC[S@+]5[O-])cc3F)C2)nc1 [Example B-78],–
–,95,30,"[O-][S@+]1COc2cc(-c3ccc(OC[C@H]4CCN(c5ncc(Cl)cn5)C4)c(F)c3)ccc21 [Example B-81, (S)-6-(4-(((S)-1-(5-Chloropyrimidin-2-yl)pyrrolidin-3-yl)methoxy)-3-fluorophenyl)-2H-benzo[d][1,3]oxathiole 3-oxide]",–
–,–,–,"C=C[C@@]1(C)CC(=O)[C@]2(O)[C@@]3(C)[C@@H](O)CCC(C)(C)[C@@H]3[C@H](O)[C@H](OC(C)=O)[C@@]2(C)O1 [Forscolin, Forskolin, reference compound]",EC50 [3]: 28.5 nM; maximum cAMP stimulation [3]: 124%
